Data on eleven compounds can be found in patent US8278338B2 (priority 2004, dated 2012).

One test has as its target T1, NA reuptake (Rattus norvegicus, UniProt Q63380).
T1 construct: isolated from the hypothalamus of male rat brains; from tissue; host or cells: rat brain synaptosomes (P2 fraction), hypothalamus of male rats
The test is described as follows: Inhibition of NA reuptake in rat brain synaptosomes (hypothalamus, P2 fraction). It is filed as biochemical. Particulars: for inhibition at 10 µM: 10 μmol./l. The procedure:
In order to be able to carry out these in vitro studies, synaptosomes were freshly isolated from areas of rat brain. A so-called “P2” fraction was used in each case, which was prepared exactly according to the procedure of Gray, E. G. and Whittaker, V. P. (1962, J. Anat. […], 79-88). For NA reuptake, these vesicular particles were isolated from the hypothalamus of male rat brains, and for 5HT reuptake, they were isolated from the medulla+pons region.
IC50 values were obtained thereby which can be converted into inhibitor constants (Ki) according to the “Cheng-Prusoff equation” (Cheng, Y. C. and Prusoff, W. H., 1973, Biochem. Pharmacol. 22, 3099-3108). The IC50 values were obtained with the aid of the “Figure P” computer program (Version 6.0, Biosoft, Cambridge, England). Km values were calculated according to Lineweaver, H. and Burk, D. (1934, J. Am. Chem. Soc. 56, 658-666). The “Ligand” computer program (Version 4, Biosoft, England) was used to show KD values.

A further test has as its target 5-HT reuptake (Rattus norvegicus, UniProt P31652). The experiment in a line: biochemical. Particulars: for inhibition at 10 µM: read-out: Inhibition of 5-HT reuptake (% inhibition at 10 μmol./l), 10 μmol./l. The source says:
In order to be able to carry out these in vitro studies, synaptosomes were freshly isolated from areas of rat brain. […] For NA reuptake, these vesicular particles were isolated from the hypothalamus of male rat brains, and for 5HT reuptake, they were isolated from the medulla+pons region.
The IC50 values were obtained with the aid of the “Figure P” computer program (Version 6.0, Biosoft, Cambridge, England). […] The “Ligand” computer program (Version 4, Biosoft, England) was used to show KD values.

The next test has as its target T2, human μ-opiate receptor (Homo sapiens, UniProt P35372).
T2 construct: purchased Perkin Elmer, Zaventem, Belgium RB-HOM; host or cells: CHO-K1 cells
The experiment in a line: Affinity for the human μ-opiate receptor, [3H]-naloxone displacement (SPA) on CHO-K1 receptor membrane preparation. The class given is binding. Particulars: for μ-Opioid receptor affinity (% inhibition at 1 μmol./l): 1 μmol./l test substance. The procedure:
The receptor affinity for the human μ-opiate receptor was determined in a homogeneous batch on microtitre plates. To that end, serial dilutions of the substances to be tested were incubated for 90 minutes at room temperature with a receptor membrane preparation (15-40 μg of protein/250 μl of incubation batch) of CHO-K1 cells, which express the human μ-opiate receptor (RB-HOM receptor membrane preparation from Perkin Elmer, Zaventem, Belgium), in the presence of 1 nmol./l of the radioactive ligand [^3H]-naloxone (NET719, Perkin Elmer, Zaventem, Belgium) and 1 mg of WGA-SPA beads (wheatgerm agglutinin SPA beads from Amersham/Pharmacia, Freiburg, Germany) in a total volume of 250 μl. The incubation buffer used was 50 mmol./l of Tris-HCl supplemented with 50 μM MgCl2 and 0.05% bovine serum albumin. In order to determine non-specific binding, 100 μmol./l of naloxone were additionally added. When the ninety-minute incubation time was complete, the microtitre plates were centrifuged off for 20 minutes at 1000 g and the radioactivity was measured in a β-counter (Microbeta-Trilux, PerkinElmer, Freiburg, Germany). The percentage displacement of the radioactive ligand from its binding to the human μ-opiate receptor at a concentration of the test substances of 1 μmol./l was determined and stated as the percentage inhibition of specific binding. […] Ki values for the test substances were obtained by conversion by means of the Cheng-Prusoff equation (Cheng and Prusoff 1973).

For the next test, the system named is mouse. The test is described as follows: Formalin test in the mouse (phase 2, chronic pain component). It is filed as in vivo. Particulars: for ED50: iv, read-out: Inhibition of the nociceptive behaviour versus control, ED50 value. The procedure: (§1) The formalin test (Dubuisson, D. and Dennis, S. G., 1977, Pain, 4, 161-174) represents a model for acute and chronic pain. By means of a single formalin injection into the dorsal side of a rear paw, a biphase nociceptive reaction was induced in freely mobile test animals; the reaction was assessed by observing three behaviour patterns which are clearly distinguishable from one another. The reaction is two-phase: phase 1=immediate reaction (duration up to 10 minutes; shaking of the paw, licking), phase 2=late reaction (after a rest phase; likewise shaking of the paw, licking; duration up to 60 minutes). The first phase reflects a direct stimulation of the peripheral nocisensors with a high spinal nociceptive input or glutamate release (acute pain phase); the second phase reflects a spinal and peripheral hypersensitisation (chronic pain phase). In the studies presented here, the chronic pain component (phase 2) was evaluated.
Formalin was administered subcutaneously in a volume of 20 μl and a concentration of 1% into the dorsal side of the right rear paw of each animal. The specific behavioural changes, such as lifting and shaking of the paw (score 3), were observed and recorded over an observation period of from 21 to 24 minutes after the formalin injection. The size of the group was 10 animals (n=10).
(§2) On the basis of the PR calculations, the activity of the substance was determined in percent as the change relative to a control. The ED50 was determined by means of regression analysis.

The next test has as its system rat. The test is described as follows: Formalin test in the rat (phase 2, chronic pain component). It is filed as in vivo. The procedure:
as §1
Formalin was administered subcutaneously in a volume of 50 μl and a concentration of 5% into the dorsal side of the right rear paw of each animal. The specific behavioural changes, such as lifting and shaking of the paw, weight shifting of the animal and biting and licking reactions, were observed and recorded over an observation period of from 21 to 27 minutes after the formalin injection. The various behaviours were combined to give the so-called pain rate (PR) which, based on 3-minute intervals, represents the calculation of a mean nociceptive reaction. The PR was calculated on the basis of a numerical weighting (=in each case factor 1, 2, 3) of the observed behaviours (corresponding to behaviour score 1, 2, 3) and was calculated using the following formula:
The size of the group was 10 animals (n=10).
as §2

Setting [1] is: rat synaptosomes, Cheng-Prusoff.
Where [2] appears, read: Cheng-Prusoff from IC50, [3H]-naloxone 1 nmol./l, read-out: μ-Opioid receptor affinity, Ki.
[3] abbreviates: 21.5 mg/kg i.v., phase 2, 21.5 mg/kg.
[4] abbreviates: inhibition of specific [3H]-naloxone binding.

pKi: −log10 of the molar value. Where two headings read alike, the source gives them in different places.

Chain of 5-HT reuptake (P31652 whole entry): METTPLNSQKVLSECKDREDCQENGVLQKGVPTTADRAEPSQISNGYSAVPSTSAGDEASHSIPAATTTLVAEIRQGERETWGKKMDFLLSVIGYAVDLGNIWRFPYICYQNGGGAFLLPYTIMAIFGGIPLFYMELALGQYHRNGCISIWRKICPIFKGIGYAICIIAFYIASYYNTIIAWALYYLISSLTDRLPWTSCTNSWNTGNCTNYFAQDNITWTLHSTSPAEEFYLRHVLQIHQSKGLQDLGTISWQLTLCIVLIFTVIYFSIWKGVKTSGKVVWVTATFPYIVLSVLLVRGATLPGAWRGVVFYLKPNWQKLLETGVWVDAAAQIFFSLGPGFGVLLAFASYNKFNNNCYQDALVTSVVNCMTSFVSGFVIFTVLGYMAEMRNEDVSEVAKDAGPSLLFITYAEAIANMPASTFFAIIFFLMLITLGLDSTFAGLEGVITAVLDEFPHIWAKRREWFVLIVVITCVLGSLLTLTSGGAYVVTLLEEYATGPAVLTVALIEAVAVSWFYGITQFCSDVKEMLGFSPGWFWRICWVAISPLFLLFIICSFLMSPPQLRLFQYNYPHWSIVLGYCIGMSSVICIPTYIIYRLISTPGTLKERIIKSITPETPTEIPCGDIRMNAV
T1 sequence (Q63380 1-617): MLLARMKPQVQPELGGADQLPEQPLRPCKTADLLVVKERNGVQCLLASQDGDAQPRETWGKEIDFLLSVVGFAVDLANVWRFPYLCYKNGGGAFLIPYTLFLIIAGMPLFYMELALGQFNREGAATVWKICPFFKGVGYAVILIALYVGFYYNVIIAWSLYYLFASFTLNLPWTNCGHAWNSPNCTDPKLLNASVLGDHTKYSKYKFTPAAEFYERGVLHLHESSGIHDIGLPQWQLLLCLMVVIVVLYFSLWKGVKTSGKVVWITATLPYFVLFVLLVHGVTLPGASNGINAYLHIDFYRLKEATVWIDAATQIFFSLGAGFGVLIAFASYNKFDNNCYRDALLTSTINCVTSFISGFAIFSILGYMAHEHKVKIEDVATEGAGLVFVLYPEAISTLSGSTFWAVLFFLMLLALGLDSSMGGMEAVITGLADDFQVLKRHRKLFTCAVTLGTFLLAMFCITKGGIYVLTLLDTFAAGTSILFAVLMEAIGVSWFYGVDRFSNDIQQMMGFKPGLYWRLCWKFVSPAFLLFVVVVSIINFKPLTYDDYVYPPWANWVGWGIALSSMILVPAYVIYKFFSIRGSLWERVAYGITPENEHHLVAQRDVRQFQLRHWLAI
T2 sequence (P35372 whole entry): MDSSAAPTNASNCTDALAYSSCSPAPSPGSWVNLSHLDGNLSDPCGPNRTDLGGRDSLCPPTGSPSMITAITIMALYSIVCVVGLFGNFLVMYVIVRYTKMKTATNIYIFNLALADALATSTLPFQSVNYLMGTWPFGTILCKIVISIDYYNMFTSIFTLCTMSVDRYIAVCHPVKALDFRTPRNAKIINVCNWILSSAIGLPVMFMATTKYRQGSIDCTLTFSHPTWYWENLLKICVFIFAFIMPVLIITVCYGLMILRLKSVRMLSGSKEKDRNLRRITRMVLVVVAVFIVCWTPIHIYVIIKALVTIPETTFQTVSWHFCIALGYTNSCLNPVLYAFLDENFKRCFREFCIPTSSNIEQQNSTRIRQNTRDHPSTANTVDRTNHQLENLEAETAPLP

`CN(C)CC1=C(c2cccnc2)c2ccccc2CCC1` [Example 12, dimethyl-(5-pyridin-3-yl-8,9-dihydro-7H-benzocyclohepten-6-ylmethyl)-amine] displayed an inhibition at 10 µM on NA reuptake of 20%. In addition, the results for the pKi on 5-HT reuptake (setting [1]) and on human μ-opiate receptor (setting [2]) were 6.92 and 6.42, respectively. In addition, the “Inhibition of the nociceptive behaviour versus control (% inhibition)” value (“Inhibition … (% inhibition)” below) in the test with mouse (14.7 mg/kg i.v., phase 2) was −45.8%.

As to `CN(C)CC1CCSc2ccccc2C1(O)c1cccnc1` (stereo not drawn) [Example 13, 4-dimethylaminomethyl-5-pyridin-3-yl-2,3,4,5-tetrahydro-benzo[b]thiepin-5-ol], the inhibition at 10 µM was found to be 45% against NA reuptake and 41% at 5-HT reuptake (rat synaptosomes). Further, the “Inhibition … (% inhibition)” value with rat (setting [3]) was −53.6%. Further, the “μ-Opioid receptor affinity (% inhibition at 1 μmol./l)” value on human μ-opiate receptor (setting [4]) was −23%.

With `CN(C)CC1CCSc2ccccc2C1(O)c1cccnc1` (stereo not drawn) [Example 14, 4-dimethylaminomethyl-5-pyridin-3-yl-2,3,4,5-tetrahydro-benzo[b]thiepin-5-ol], on NA reuptake, the “Inhibition of NA reuptake (% inhibition at 10 μmol./l)” value came to 54%. The “Inhibition of 5-HT reuptake (% inhibition at 10 μmol./l)” value at 5-HT reuptake (rat synaptosomes) worked out at 44%. In addition, the “Inhibition … (% inhibition)” value in the test with rat (setting [3]) is −53.2%. Further, the “μ-Opioid receptor affinity (% inhibition at 1 μmol./l)” value at human μ-opiate receptor (setting [4]) is −14%.

As for `CN(C)CC1Cc2ccccc2C1(O)c1cccnc1` (single isomer, unassigned) [Example 2, 2-dimethylaminomethyl-1-pyridin-3-yl-indan-1-ol], the “Inhibition of NA reuptake (% inhibition at 10 μmol./l)” value on NA reuptake was determined as 43%. In addition, the “Inhibition of 5-HT reuptake (% inhibition at 10 μmol./l)” value on 5-HT reuptake (rat synaptosomes) is recorded as 89%. Further, in the test with rat (46.4 mg/kg i.v., phase 2), the “Inhibition … (% inhibition)” value is given as −80.6%. Besides, the “μ-Opioid receptor affinity (% inhibition at 1 μmol./l)” value at human μ-opiate receptor (setting [4]) worked out at 60%.

With `CN(C)CC1Cc2ccccc2C1c1cccnc1` (stereo not drawn) [Example 4, dimethyl-(1-pyridin-3-yl-indan-2-ylmethyl)-amine], the inhibition at 10 µM amounted to 46% against NA reuptake and 86% at 5-HT reuptake (rat synaptosomes). Besides, in the test with rat (4.64 mg/kg i.v., phase 2), the “Inhibition … (% inhibition)” value is reported as −61.60%. The inhibition at 1 µM at human μ-opiate receptor (1.5 h, read-out: μ-Opioid receptor affinity (% inhibition at 1 μmol./l), 1 μmol./l test substance, inhibition of specific [3H]-naloxone binding) was found to be 31%.

As to `CN(C)CC1=C(c2cccnc2)c2ccccc2C1` [Example 3, dimethyl-(3-pyridin-3-yl-1H-inden-2-ylmethyl)-amine], the inhibition at 10 µM against NA reuptake was found to be 30%. Further, the pKi (usually −log10 of the Ki, conventionally taken in molar units) is 7.89 on 5-HT reuptake (setting [1]) and 6.62 on human μ-opiate receptor. For the same compound, the ED50 – broadly, the midpoint of the dose-response relation – with mouse (phase 2, regression analysis) was determined as 3.32 mg/kg.

In the case of `CN(C)CC1=C(c2cccnc2)c2ccc(O)cc2C1` [Example 7, 2-dimethylaminomethyl-1-pyridin-3-yl-3H-inden-5-ol], on NA reuptake, the inhibition at 10 µM was 59%. Also, the figures for the pKi at 5-HT reuptake and on human μ-opiate receptor (setting [2]) were 7.60 and 6.42, respectively. Besides, in the test on rat (iv, phase 2, regression analysis, read-out: Inhibition of the nociceptive behaviour versus control, ED50 value), the ED50 was found to be 2.93 mg/kg.

Regarding `CN(C)CC1=C(c2cccnc2)c2ccccc2SCC1` [Example 15, dimethyl-(5-pyridin-3-yl-2,3-dihydro-benzo[b]thiepin-4-ylmethyl)-amine], the inhibition at 10 µM against NA reuptake came out at 36%; on 5-HT reuptake (rat synaptosomes), 60%. Further, the “Inhibition … (% inhibition)” value with rat (10 mg/kg i.v., phase 2) is −70.7%. On human μ-opiate receptor (setting [2]), the pKi is 6.49.

On NA reuptake, `COc1ccc2c(c1)CC(CN(C)C)=C2c1cccnc1` [Example 6, (6-methoxy-3-pyridin-3-yl-1H-inden-2-ylmethyl)-dimethyl-amine] had an inhibition at 10 µM of 31%. Moreover, the pKi is 7.55 at 5-HT reuptake (setting [1]) and 6.82 at human μ-opiate receptor. Also, the ED50 in the test on mouse (phase 2, regression analysis) was 1.64 mg/kg.

On to `COc1ccc(C(CN(C)C)C2(O)CCCCC2)cc1` (stereo not drawn) [Venlafaxin, venlafaxin, reference compound], for which, at human μ-opiate receptor (setting [4]), the “μ-Opioid receptor affinity (% inhibition at 1 μmol./l)” value is −1%. In the test with mouse (i.v., phase 2, regression analysis), the “Inhibition of the nociceptive behaviour versus control, ED50 value” is reported as 2.60 mg/kg.

For `CN(C)CC1=C(c2cccnc2)c2ccccc2CC1` [Example 9, dimethyl-(1-pyridin-3-yl-3,4-dihydro-naphthalen-2-ylmethyl)-amine], the inhibition at 10 µM against NA reuptake worked out at 26%; at 5-HT reuptake (rat synaptosomes), 56%. Further, the “Inhibition … (% inhibition)” value with rat (10 mg/kg i.v., phase 2) is −97.0%. In addition, the pKi at human μ-opiate receptor (setting [2]) is 6.25.
